Measurements taken from the supplement of paper PMC10307832.

How the values were obtained:
Experiment in all cases: relative viability (nuclei count vs DMSO), 5 days (fraction); higher = more cells survive
NCI-H1792 = system: NCI-H1792
How it was run: (§1)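 Lung cancer cell lines, seeded in 1536-well plates, were treated the following day by pin tool with a single drug or with five library-drug doses (not always all listed) in √10 steps on top of a fixed anchor-drug dose. Cells were fixed and nuclei stained in one step after 5 days, and nuclei were counted. Relative viability is the nuclei count for treated wells divided by that for vehicle wells, reported as medians of duplicate plates.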

NCI-H23 = system: NCI-H23
How it was run: as §1

EKVX = system: EKVX
How it was run: as §1

NCI-H838 = system: NCI-H838
How it was run: as §1

A-427 = system: A-427
How it was run: as §1

HCC-15 = system: HCC-15
How it was run: as §1

HCC-827 = system: HCC-827
How it was run: as §1

NCI-H441 = system: NCI-H441
How it was run: as §1

COR-L 105 = system: COR-L 105
How it was run: as §1

NCI-H1437 = system: NCI-H1437
How it was run: as §1

BEN = system: BEN
How it was run: as §1

201T = system: 201T
How it was run: as §1

NCI-H1666 = system: NCI-H1666
How it was run: as §1

LK-2 = system: LK-2
How it was run: as §1

COR-L23 = system: COR-L23
How it was run: as §1

HCC-44 = system: HCC-44
How it was run: as §1

SK-MES-1 = system: SK-MES-1
How it was run: as §1

HARA = system: HARA
How it was run: as §1

NCI-H596 = system: NCI-H596
How it was run: as §1

NCI-H1975 = system: NCI-H1975
How it was run: as §1

## NC(=O)Nc1cc(-c2cccc(F)c2)sc1C(=O)N[C@H]1CCCNC1 [AZD7762] + CC1(C)CCC(c2ccc(Cl)cc2)=C(CN2CCN(c3ccc(C(=O)NS(=O)(=O)c4ccc(N[C@H](CCN5CCOCC5)CSc5ccccc5)c(S(=O)(=O)C(F)(F)F)c4)cc3)CC2)C1 [Navitoclax] (partner 0.5 µM)
NCI-H1792; first compound 0.01 µM
  relative viability: 0.677
NCI-H1792; first compound 0.03162 µM
  relative viability: 0.686
NCI-H1792; first compound 0.1 µM
  relative viability: 0.692
NCI-H1792; first compound 0.3162 µM
  relative viability: 0.565
NCI-H1792; first compound 1 µM
  relative viability: 0.72
NCI-H23; first compound 0.01 µM
  relative viability: 0.983
NCI-H23; first compound 0.03162 µM
  relative viability: 0.886
NCI-H23; first compound 0.1 µM
  relative viability: 0.905
NCI-H23; first compound 0.3162 µM
  relative viability: 0.783
NCI-H23; first compound 1 µM
  relative viability: 0.464
EKVX; first compound 0.01 µM
  relative viability: 0.954
EKVX; first compound 0.03162 µM
  relative viability: 0.863
EKVX; first compound 0.1 µM
  relative viability: 0.918
EKVX; first compound 0.3162 µM
  relative viability: 0.596
EKVX; first compound 1 µM
  relative viability: 0.574
NCI-H838; first compound 0.01 µM
  relative viability: 1.19
NCI-H838; first compound 0.03162 µM
  relative viability: 1.15
NCI-H838; first compound 0.1 µM
  relative viability: 1.09
NCI-H838; first compound 0.3162 µM
  relative viability: 1.03
NCI-H838; first compound 1 µM
  relative viability: 0.576
A-427; first compound 0.01 µM
  relative viability: 0.951
A-427; first compound 0.03162 µM
  relative viability: 0.948
A-427; first compound 0.1 µM
  relative viability: 1.08
A-427; first compound 0.3162 µM
  relative viability: 1.04
A-427; first compound 1 µM
  relative viability: 0.36
HCC-15; first compound 0.01 µM
  relative viability: 0.663
HCC-15; first compound 0.03162 µM
  relative viability: 0.708
HCC-15; first compound 0.1 µM
  relative viability: 0.771
HCC-15; first compound 0.3162 µM
  relative viability: 0.728
HCC-15; first compound 1 µM
  relative viability: 0.789
HCC-827; first compound 0.01 µM
  relative viability: 1
HCC-827; first compound 0.03162 µM
  relative viability: 0.918
HCC-827; first compound 0.1 µM
  relative viability: 0.991
HCC-827; first compound 0.3162 µM
  relative viability: 0.94
HCC-827; first compound 1 µM
  relative viability: 0.93
NCI-H441; first compound 0.01 µM
  relative viability: 0.803
NCI-H441; first compound 0.03162 µM
  relative viability: 0.684
NCI-H441; first compound 0.1 µM
  relative viability: 0.721
NCI-H441; first compound 0.3162 µM
  relative viability: 0.479
NCI-H441; first compound 1 µM
  relative viability: 1.1
COR-L 105; first compound 0.01 µM
  relative viability: 0.694
COR-L 105; first compound 0.03162 µM
  relative viability: 0.768
COR-L 105; first compound 0.1 µM
  relative viability: 0.671
COR-L 105; first compound 0.3162 µM
  relative viability: 0.527
COR-L 105; first compound 1 µM
  relative viability: 0.463
NCI-H1437; first compound 0.01 µM
  relative viability: 1.09
NCI-H1437; first compound 0.03162 µM
  relative viability: 1.04
NCI-H1437; first compound 0.1 µM
  relative viability: 1.07
NCI-H1437; first compound 0.3162 µM
  relative viability: 1.08
NCI-H1437; first compound 1 µM
  relative viability: 1.05
BEN; first compound 0.01 µM
  relative viability: 0.0635
BEN; first compound 0.03162 µM
  relative viability: 0.0616
BEN; first compound 0.1 µM
  relative viability: 0.0641
BEN; first compound 0.3162 µM
  relative viability: 0.0656
BEN; first compound 1 µM
  relative viability: 0.0695
201T; first compound 0.01 µM
  relative viability: 1.18
201T; first compound 0.03162 µM
  relative viability: 1.23
201T; first compound 0.1 µM
  relative viability: 1.21
201T; first compound 0.3162 µM
  relative viability: 1.25
201T; first compound 1 µM
  relative viability: 1.27
NCI-H1666; first compound 0.01 µM
  relative viability: 1.24
NCI-H1666; first compound 0.03162 µM
  relative viability: 1.36
NCI-H1666; first compound 0.1 µM
  relative viability: 1.23
NCI-H1666; first compound 0.3162 µM
  relative viability: 0.797
NCI-H1666; first compound 1 µM
  relative viability: 0.661
LK-2; first compound 0.01 µM
  relative viability: 0.849
LK-2; first compound 0.03162 µM
  relative viability: 0.822
LK-2; first compound 0.1 µM
  relative viability: 0.838
LK-2; first compound 0.3162 µM
  relative viability: 0.756
LK-2; first compound 1 µM
  relative viability: 0.607
COR-L23; first compound 0.01 µM
  relative viability: 1.28
COR-L23; first compound 0.03162 µM
  relative viability: 1.01
COR-L23; first compound 0.1 µM
  relative viability: 1.01
COR-L23; first compound 0.3162 µM
  relative viability: 0.891
COR-L23; first compound 1 µM
  relative viability: 0.194
HCC-44; first compound 0.01 µM
  relative viability: 1.1
HCC-44; first compound 0.03162 µM
  relative viability: 0.933
HCC-44; first compound 0.1 µM
  relative viability: 1.01
HCC-44; first compound 0.3162 µM
  relative viability: 0.901
HCC-44; first compound 1 µM
  relative viability: 1.01
SK-MES-1; first compound 0.01 µM
  relative viability: 1.24
SK-MES-1; first compound 0.03162 µM
  relative viability: 1.38
SK-MES-1; first compound 0.1 µM
  relative viability: 1.41
SK-MES-1; first compound 0.3162 µM
  relative viability: 1.28
SK-MES-1; first compound 1 µM
  relative viability: 0.645
HARA; first compound 0.01 µM
  relative viability: 1.12
HARA; first compound 0.03162 µM
  relative viability: 1.15
HARA; first compound 0.1 µM
  relative viability: 1.2
HARA; first compound 0.3162 µM
  relative viability: 1.12
HARA; first compound 1 µM
  relative viability: 0.801
NCI-H596; first compound 0.01 µM
  relative viability: 1.14
NCI-H596; first compound 0.03162 µM
  relative viability: 0.936
NCI-H596; first compound 0.1 µM
  relative viability: 1.06
NCI-H596; first compound 0.3162 µM
  relative viability: 0.912
NCI-H596; first compound 1 µM
  relative viability: 0.698
NCI-H1975; first compound 0.01 µM
  relative viability: 1.03
NCI-H1975; first compound 0.03162 µM
  relative viability: 0.953
NCI-H1975; first compound 0.1 µM
  relative viability: 1.11
NCI-H1975; first compound 0.3162 µM
  relative viability: 0.938
NCI-H1975; first compound 1 µM
  relative viability: 0.676
